Experimental data from patent US8617555B2, “Pharmaceutical compositions comprising activated-potentiated antibodies to human insulin receptor and endothelial nitric oxide (NO) synthase” (priority 2010, dated 2013).

How the values were obtained:
[1] = test system: rats with streptozotocin-induced diabetes mellitus; assay: Fasting blood plasma glucose level in rats with streptozotocin-induced diabetes mellitus; assay type: in vivo, Wistar rats; conditions: STZ rats
Method: In the study, 150 male Wistar were used (weight at beginning of study 250-300 g, age 3.5-4 months). 10 rats were intact. The rest were intravenously injected with streptozotocin at the dose of 50 mg/kg (experimental model of diabetes mellitus). […] Intact rats received distilled water in the same volume. On days 7, 14 and 21 of injection of preparations in rats, fasting blood plasma glucose level measured with enzymatic method (glucose oxidase method) with utilization of “glucose FKD” kits (Russia).

[2] = test system: rats with streptozotocin-induced diabetes mellitus; assay: Oral glucose tolerance test (OGTT) on day 14 in rats with streptozotocin-induced diabetes mellitus; assay type: in vivo, Wistar rats; conditions: STZ rats; day 14 of injection; glucose 1 g/kg per os; administered alone
Method: The rats were starving at water for 18 hours. 60 min before the test they were last given test substances. Intact rats received distilled water in the same volume. Glucose was administered per os 50% w/w water glucose solution (1 g/kg of rat weight). Serum glucose of blood sample from tail vein was measured by using “Glucose FKD” kit (OOO “Pharamaceutical and clinical diagnostics, Russia) at 0, 30, 60, 90, 120 min. Mean area under the curve (AUC) concentration of blood glucose over time was calculated.

Molecule: CN(CCOc1ccc(CC2SC(=O)NC2=O)cc1)c1ccccn1 (stereo not drawn) [Rosiglitazone]
- decrease in glucose level versus control ([1]; day 14 of the experiment, p<0.05 versus control): 36%

Molecule: insulin: short-acting insulin, 8 units/kg/day subcutaneously, 1/2 of the effective dose
- effect on blood plasma glucose level (in words) ([1]; all observation periods, 1/2 of the effective dose, glucose measured 1 hour after injection): down to the level of the intact control
- glucose tolerance, area under concentration-time curve (AUC) in OGTT (in words) [2]: most effectively increased glucose tolerance
